EC50 data for 17 compounds are collected here from patent US20200223837A1, “BENZOFURAN AMIDES AND HETEROAROMATIC ANALOGUES THEREOF FOR USE IN THERAPY” (European Molecular Biology Laboratory, priority 2017, published 2020).

This experiment relates to EGR1 promoter. The experiment can be described thus: EGR1 reporter assay (luciferase) in genomically engineered HeLa cell line. Type of experiment: cell-based. The settings on record: Homo sapiens; EGR1 reporter HeLa cells, luciferase activity after 24 hours with compound. An excerpt:
The compounds of the present invention can be characterized for their effect on expression of egr1 (early growth response protein 1) using an EGR1 reporter cell line.
The HeLa cell line was genetically modified to provide a simple, robust and highly reproducible cell-based assay reporting the activity of an endogenous EGR1 promoter. In brief, a construct encoding EGFP and luciferase proteins, separated by a self-cleaving P2A peptide was inserted, using CRISPR, immediately downstream (3′) to the promoter of endogenous EGR1. Upon treatment with compounds, cells express EGFP and luciferase from EGR1 promoter, which can be readily detected either in live cells using microscopy or cytometry, or through detection of luciferase activity in cell lysates.
To achieve stable genomic integration of an EGR1-promoter dual reporter, two plasmids were generated: one contained the reporter construct (eGFP-P2A-luciferase) flanked by homology arms that direct insertion into genomic DNA, by homologous recombination, of a break in genomic DNA generated by guide RNA targeted cleavage by Cas9 endonuclease. The gRNA expressing plasmid was based on px330 (56), into which a gRNA sequence that targets a break in gDNA close to the start codon of EGR1 was cloned. The left homology arm (encoding part of EGR1 promoter adjacent to its start codon) and right homology arm (encoding […] of start codon of EGR1) were cloned from gDNA using the following primers: […]
The present compounds can be tested, e.g. by using a HeLa cell line carrying an EGR1 reporter construct which allows for expression of luciferase and eGFP (enhanced GFP) controlled by the EGR1 promoter. For this reporter cells are seeded in the wells of a 384 well microtiter plate at a density of 2000 cells per well in 48 μl of DMEM supplemented with 4.5 g/l glucose, 2 mM glutamine and 10% FCS and are incubated for 24 hours at 37° C. with 5% CO2 and 95% humidity. Then, an eleven point 1:3 serial dilution of each test compound, from an initial concentration of 100 μM, is prepared in DMSO and the dilutions are added to the cells in a volume of 2 μl per well. The cells are incubated for a further 24 hours, after which the luciferase activity of each well is determined by addition of 25 μl of luciferase substrate reaction mixture (Britelite™ plus, Perkin Elmer) and measuring the bioluminescence light output (EnVision Xcite plate reader, PerkinElmer).
The compound of example 64 served as a positive control for this EGR1 reporter assay. The compound of example 64 had been identified in an initial high throughput screening campaign.
A general note: Reporter assays use an easily measured gene product as a stand-in for the process of interest.

As to `CC(=O)NCc1ccc(-c2csc(NC(=O)Cc3coc4cc(C)c(C(C)C)cc34)n2)o1` [Example 1, N-[4-[5-(Acetamidomethyl)-2-furyl]thiazol-2-yl]-2-(5-isopropyl-6-methyl-benzofuran-3-yl)acetamide], the EC50 is 10 to 100 µM. The figure for `COc1ccc2c(CC(=O)Nc3nccs3)coc2c1` [Example 2, 2-(6-Methoxybenzofuran-3-yl)-N-thiazol-2-yl-acetamide] is 10 to 100 µM; for `Cn1ccc(NC(=O)Cc2coc3cc4c(cc23)CCC4)n1` [Example 3, 2-(6,7-Dihydro-5H-cyclopenta[f]benzofuran-3-yl)-N-(1-methylpyrazol-3-yl)acetamide] it is 10 to 100 µM; for `Cc1ccc2occ(CC(=O)Nc3ncc(C(F)(F)F)s3)c2c1` [Example 4, 2-(5-Methylbenzofuran-3-yl)-N-[5-(trifluoromethyl)thiazol-2-yl]acetamide] it is 10 to 100 µM. The figure for `CCc1ccc2c(CC(=O)Nc3nc(-c4ccccn4)cs3)coc2c1` [Example 5, 2-(6-Ethylbenzofuran-3-yl)-N-[4-(2-pyridyl)thiazol-2-yl]acetamide] is 10 to 100 µM; for `O=C(Cc1coc2ccccc12)Nc1ncc(C(F)(F)F)s1` [Example 6, 2-(Benzofuran-3-yl)-N-[5-(trifluoromethyl)thiazol-2-yl]acetamide] it is 10 to 100 µM; for `COc1ccc2c(CC(=O)Nc3nc(CC(N)=O)cs3)coc2c1` [Example 7, N-[4-(2-Amino-2-oxo-ethyl)thiazol-2-yl]-2-(6-methoxybenzofuran-3-yl)acetamide] it is 10 to 100 µM.

In the case of `COc1ccc2c(CC(=O)Nc3nc(-c4ccc(CNC(C)=O)o4)cs3)coc2c1` [Example 8, N-[4-[5-(Acetamidomethyl)-2-furyl]thiazol-2-yl]-2-(6-methoxybenzofuran-3-yl)acetamide], the concentration for a half-maximal effect (EC50) fell in the range of 10 to 100 µM. Consider `Cc1cc2occ(CC(=O)Nc3nc(-c4ccccn4)cs3)c2cc1C` [Example 9, 2-(5,6-Dimethylbenzofuran-3-yl)-N-[4-(2-pyridyl)thiazol-2-yl]acetamide], for which the EC50 lay within 10 to 100 µM. Regarding `Cc1cnc(NC(=O)Cc2coc3c(C)cccc23)s1` [Example 10, 2-(7-Methylbenzofuran-3-yl)-N-(5-methylthiazol-2-yl)acetamide], the EC50 lay in the range of 10 to 100 µM. As to `COc1ccc(OC)c(-c2csc(NC(=O)Cc3coc4cc(C)ccc34)n2)c1` [Example 11, N-[4-(2,5-Dimethoxyphenyl)thiazol-2-yl]-2-(6-methylbenzofuran-3-yl)acetamide], the EC50 lay within 10 to 100 µM. Take `COc1ccc2c(CC(=O)Nc3nc(C)cs3)coc2c1` [Example 12, 2-(6-Methoxybenzofuran-3-yl)-N-(4-methylthiazol-2-yl)acetamide]: the EC50 lay within 10 to 100 µM. For `CCOC(=O)c1csc(NC(=O)Cc2coc3cc(C)ccc23)n1` [Example 13, Ethyl 2-[[2-(6-methylbenzofuran-3-yl)acetyl]amino]thiazole-4-carboxylate], the EC50 fell in the range of 10 to 100 µM. As to `COc1ccc(OC)c(-c2csc(NC(=O)Cc3coc4cc(OC)ccc34)n2)c1` [Example 14, N-[4-(2,5-Dimethoxyphenyl)thiazol-2-yl]-2-(6-methoxybenzofuran-3-yl)acetamide], the EC50 was in the range of 10 to 100 µM. For the compound `Cc1cnc(NC(=O)Cc2coc3cc(Cl)ccc23)s1` [Example 15, 2-(6-Chlorobenzofuran-3-yl)-N-(5-methylthiazol-2-yl)acetamide], the EC50 was in the range of 10 to 100 µM. Turning to `Cc1cc2occ(CC(=O)N(c3ccc(F)cc3)c3nc4ccccc4s3)c2cc1C(C)C` [Example 16, N-(1,3-Benzothiazol-2-yl)-N-(4-fluorophenyl)-2-(5-isopropyl-6-methyl-benzofuran-3-yl)acetamide], the EC50 lay in the range of 10 to 100 µM. The figure for `Cc1cnc(NC(=O)Cc2coc3cc4c(cc23)CCC4)o1` [Example 17, 2-(6,7-Dihydro-5H-cyclopenta[f]benzofuran-3-yl)-N-(5-methyloxazol-2-yl)acetamide] is 10 to 100 µM.

As usually defined, the EC50 is the concentration at which the effect is half-maximal.
